Experiment [1] relates to insulin-resistant Zucker fatty (fa/fa) rats. Particulars: glucose clamp technique; cited from earlier work.
Experiment [2] concerns the target insulin receptor tyrosine kinase (Homo sapiens, UniProt P06213). Particulars: cited from earlier work.
Experiment [3] concerns normal male Wistar rats. As to the kind of experiment: Intravenous insulin tolerance test (IVITT). In kind it is in vivo, rat. Particulars: 5 μmol/kg i.v.; for insulin-potentiating effect on decreasing blood glucose in IVITT (in words): from 30 min after commencement; for Reduction in Blood Glucose: 0.1 U insulin/kg. As to the method:
IVITTs (0.1 U insulin/kg body weight) were performed on overnight-fasted Wistar male rats as previously described (Lim et al, 1992). Blood samples were taken for glucose estimation at 15, 30, 45, 60 min after the commencement of the tests. Six animals in each group were used.
IVITTs were performed on normal male Wistar rats after a single intravenous (i.v.) injection of the hGH peptide analogues at a dose of 5 μmol/kg body weight. The insulin-potentiating effects of peptides 6, 7, 8 and 10 on decreasing blood glucose levels of treated animals became significant since 30 min after the commencement of the test. Bioactivity was retained when the Arg^8 or Phe^10 residue of Asu^11-hGH(6-13) peptide was substituted with Lys or Tyr respectively (1.92±0.17 or 1.62±0.18 vs. 1.65±0.12 mmol/L at 45 min), as shown in Table 3. However, no insulin-potentiating effect was observed when either Arg^8 or Phe^10 was substituted by Gly (0.92±0.08 or 1.08±0.08 mmol/L respectively vs. 1.00±0.10 mmol/L of control at 45 min). Asu^11-hGH(8-13) also elicited this insulin-potentiating effect, but with lower potency.

In experiment [4] the test system is Zucker fatty (fa/fa) rats. As to the kind of experiment: Basal blood glucose determination after i.p. peptide. The class given is in vivo, rat. Conditions: 10 μmol/kg body weight i.p., over 150 min, vs saline. As for the experimental part: Overnight-fasted Zucker fatty(fa/fa) female rats were anaesthetized with sodium pentobarbitone (60 mg/kg body weight). After 45 min, basal blood glucose samples were taken from the tail vein, followed immediately by intraperitoneal (i.p.) injection of saline (control) or the peptide analogue (test, 10 μmol/kg body weight) in 0.4 ml of saline. Blood samples were taken at 15, 30, 60, 90, 120, 150 minutes after injection, and the blood glucose level in each sample was measured immediately by the glucose oxidase method, using a YSI Model-2300 STAT glucose analyzer (Yellow Spring, Ohio). Six animals for each group were used.
The reduction of basal blood glucose levels in animals by different peptide analogues administered intraperitoneally (i.p.)at a dose of 10 μmol/kg body weight was measured for over 150 min.

Experiment [5] has as its system Zucker (fa/fa) rat hemidiaphragm muscle. In words: In vitro glycogen synthesis (glucose incorporation into glycogen) in hemidiaphragm muscle with exogenous insulin. The class given is cell-based. Particulars: with 1 mU/ml exogenous insulin. As for the experimental part:
In vitro insulin-potentiating effects of the synthetic peptide analogues were assessed by measuring the rates of exogenous glucose incorporation into glycogen in rat hemidiaphragms (Lim et al, 1992). Hemidiaphragms from overnight-fasted Zucker fatty(fa/fa) female rats were dissected, and divided into segments of approximate 35-50 mg each. Tissues from the same rat were used for all groups. The tissue was incubated in 2 ml of Krebs-Ringer bicarbonate (KRB) buffer (pH 7.4) containing [^14C]glucose (5.5 mM, final specific activity 0.05 mCi/mmol) under an atmosphere of 95% 02-5% CO2 at 37° C. for 1.5 hr. After incubation, tissues were removed, washed with cold buffer and blotted. Tissues were digested, the muscle glycogen was precipitated and the ^14C-radioactivity was counted in a Wallac 1410 liquid scintillation counter. The biological activity of peptide analogues was measured as the rate of mmol glucose incorporation into muscle glycogen/g tissue/hr.
The sensitivity of hemidiaphragm muscle tissue to insulin (0.1-100 mU/ml) on glycogen synthesis was first analyzed. The dose response curves for peptide analogues on the insulin-potentiating effect to glycogen synthesis were then measured using cumulative increasing concentrations (10^−3 10 μmol/ml) of peptides in the presence of insulin (1 mU/ml). The biological activity of each peptide analogue was measured as the rate of glucose incorporation into muscle glycogen (μmol/g tissue/hr), and represented by the mean±SEM from eight determinations.
To determine the insulin-potentiating effect of the peptide analogues, the rates of incorporation of glucose into muscle glycogen were measured. The rates of glycogen synthesis (μmol/g tissue/hr) were 0.52±0.05, 0.60±0.04, 1.27±0.06 and 1.52±0.07 inresponse to 0.33, 1, 3.33 and 10 mU/ml insulin respectively, as shown in FIG. 1.
The insulin-potentiating effect of the peptide analogues was then observed by studying their dose response. curves for glucose incorporation into glycogen in the presence of 1 mU/ml exogenous insulin. The effects of peptides 1, 3, 4, 6, 7, 8 and 10 were evident at doses higher than 0.01 μmol/ml, and continued to increase with increasing peptide concentration to 1 μmol/ml, as shown in FIGS. 2A and 2B.
The activity of each analogue was assessed by in vitro measurement of glycogen synthesis in muscle, as described above.

Ends that are not written are not given here.

For the substance “Leu-Ser-Arg-Leu-Phe-Asu-Asn-Ala (LSRLFDNA-NH2; not fully specified; printed as Leu-Ser-Arg-Leu-Phe-Asu-Asn-Ala) [Peptide 7]”, the glucose tolerance entry in experiment [1] is reported as “improve glucose tolerance”. In addition, in experiment [2], the “effect on insulin receptor tyrosine kinase activity” value was “stimulating”. In addition, the “insulin-potentiating effect on decreasing blood glucose in IVITT (in words)” value in experiment [3] is “significant”. Besides, the “Reduction in Blood Glucose” value in experiment [3] (15 min) was found to be 1.08 ± 0.09 mmol/L; in experiment [3] (30 min), 1.38 ± 0.13 mmol/L; in experiment [3] (45 min), 1.65 ± 0.12 mmol/L; in experiment [3] (45 min, listed as Asu^11-hGH(6-13)), 1.65 ± 0.12 mmol/L; in experiment [3] (60 min), 1.77 ± 0.19 mmol/L.

On to “Arg-Leu-Phe-Asu-Asn-Ala (RLFDNA-NH2) [Peptide 6]”, for which the “hypoglycaemic effect (reduction of basal blood glucose level)” value in experiment [4] was “significant hypoglycaemic effects”; in experiment [4] (listed as Asu^11-hGH(8-13) amide), “diminished insulin-potentiating effect”. In experiment [5], the “insulin-potentiating activity on in vitro glycogen synthesis (in words)” value is “diminished insulin-potentiating effect”. Also, the “insulin-potentiating effect on decreasing blood glucose in IVITT (in words)” value in experiment [3] is “significant”; in experiment [3] (listed as Asu^11-hGH(8-13)), “lower potency”. The “Reduction in Blood Glucose” value turned out to be 0.93 ± 0.17 mmol/L in experiment [3] (15 min), 1.58 ± 0.12 mmol/L in experiment [3] (30 min), 1.50 ± 0.15 mmol/L in experiment [3] (45 min) and 1.50 ± 0.19 mmol/L in experiment [3] (60 min).

These data come from patent US20040054130A1, “Insulin potentiating peptides” (priority 2000, published 2004).
